Results published in publication PMC3084506 (Archives of Drug Information, 2011).
Entries after “also recorded” stand apart in the source; their conditions may differ. Where two headings read alike, the source gives them in different places. Square brackets hold non-standard residues; d marks the D form. Peptide text beside a SMILES is read from it. Sar = CNCC(=O)O

Columns and labels:
[1] = tested on: MDCKI cells; experiment: Effect of inhibitors on ciprofloxacin bidirectional transport in MDCKI cells; conditions: 25 µM ciprofloxacin, inhibitor concentrations as in Figure 4 legend
[2] = Bidirectional transport study in MDCKI cells; type: in vitro ADME, canine; conditions: dog, MDCK
[3] = Bidirectional transport study in LLC-PK1 cells; type: in vitro ADME; conditions: pig
[4] = molecular target: MRP1 (L-MRP1 cells) (Homo sapiens, UniProt P33527); experiment: Bidirectional transport study in L-MRP1 cells; type: in vitro ADME; conditions: LLC-PK1
[5] = molecular target: T1, P-gp (L-MDR1 cells) (Homo sapiens, UniProt P08183); experiment: Bidirectional transport study in L-MDR1 cells; type: in vitro ADME; conditions: LLC-PK1
[6] = in vitro; conditions: human, MDCK-MDR1
[7] = tested on: P-gp (MDCKI-MDR1 cells); conditions: MDCKI-MDR1 and L-MDR1 cells; cited from earlier work
[8] = molecular target: P-gp (MDCKII-MDR1 cells) (Homo sapiens, UniProt P08183); conditions: MDCKII vs MDCKII-MDR1; cited from earlier work
[9] = cited from earlier work
[10] = humans; cited from earlier work
[11] = tested on: OAT3; conditions: cited from earlier work
[12] = tested on: P-gp (MDCKI-MDR1 cells); conditions: studies done in our lab
[13] = molecular target: T1, P-gp (L-MDR1 cells); conditions: LLC-PK1 vs L-MDR1, cited from earlier work

T1 sequence (P08183 whole entry): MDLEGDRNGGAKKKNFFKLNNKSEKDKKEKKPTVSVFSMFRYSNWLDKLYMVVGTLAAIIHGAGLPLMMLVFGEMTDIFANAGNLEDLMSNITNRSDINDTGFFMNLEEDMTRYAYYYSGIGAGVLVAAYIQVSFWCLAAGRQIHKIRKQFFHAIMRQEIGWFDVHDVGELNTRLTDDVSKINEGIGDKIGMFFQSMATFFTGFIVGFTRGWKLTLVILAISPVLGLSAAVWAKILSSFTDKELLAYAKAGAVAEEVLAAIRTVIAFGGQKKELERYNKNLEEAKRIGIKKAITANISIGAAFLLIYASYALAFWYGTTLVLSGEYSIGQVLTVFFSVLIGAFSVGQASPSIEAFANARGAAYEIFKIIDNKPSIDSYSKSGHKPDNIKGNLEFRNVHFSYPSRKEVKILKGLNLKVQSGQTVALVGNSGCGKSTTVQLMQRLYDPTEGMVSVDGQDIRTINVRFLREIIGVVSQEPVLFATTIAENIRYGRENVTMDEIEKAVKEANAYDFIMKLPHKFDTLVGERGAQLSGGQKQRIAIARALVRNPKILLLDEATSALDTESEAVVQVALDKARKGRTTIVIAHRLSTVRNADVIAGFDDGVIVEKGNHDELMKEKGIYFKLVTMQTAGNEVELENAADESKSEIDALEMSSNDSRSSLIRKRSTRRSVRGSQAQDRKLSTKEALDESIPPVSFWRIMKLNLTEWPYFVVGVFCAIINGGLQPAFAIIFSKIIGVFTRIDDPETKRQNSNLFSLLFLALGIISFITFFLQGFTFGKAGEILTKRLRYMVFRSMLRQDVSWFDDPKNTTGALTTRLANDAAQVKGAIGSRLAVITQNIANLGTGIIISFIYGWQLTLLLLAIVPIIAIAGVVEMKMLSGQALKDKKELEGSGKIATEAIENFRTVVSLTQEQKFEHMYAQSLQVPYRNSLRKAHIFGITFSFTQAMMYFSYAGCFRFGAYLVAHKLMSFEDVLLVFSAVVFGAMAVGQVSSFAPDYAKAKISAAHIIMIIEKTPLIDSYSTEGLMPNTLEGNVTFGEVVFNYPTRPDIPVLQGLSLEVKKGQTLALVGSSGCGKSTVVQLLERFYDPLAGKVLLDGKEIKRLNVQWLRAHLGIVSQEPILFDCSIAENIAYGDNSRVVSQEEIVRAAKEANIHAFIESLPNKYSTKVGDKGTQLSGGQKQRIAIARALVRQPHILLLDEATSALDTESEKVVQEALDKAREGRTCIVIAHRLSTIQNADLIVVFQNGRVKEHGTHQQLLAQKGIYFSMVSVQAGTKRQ
P-gp (MDCKII-MDR1 cells), sequence (P08183 whole entry): as above
MRP1 (L-MRP1 cells), sequence (P33527 whole entry): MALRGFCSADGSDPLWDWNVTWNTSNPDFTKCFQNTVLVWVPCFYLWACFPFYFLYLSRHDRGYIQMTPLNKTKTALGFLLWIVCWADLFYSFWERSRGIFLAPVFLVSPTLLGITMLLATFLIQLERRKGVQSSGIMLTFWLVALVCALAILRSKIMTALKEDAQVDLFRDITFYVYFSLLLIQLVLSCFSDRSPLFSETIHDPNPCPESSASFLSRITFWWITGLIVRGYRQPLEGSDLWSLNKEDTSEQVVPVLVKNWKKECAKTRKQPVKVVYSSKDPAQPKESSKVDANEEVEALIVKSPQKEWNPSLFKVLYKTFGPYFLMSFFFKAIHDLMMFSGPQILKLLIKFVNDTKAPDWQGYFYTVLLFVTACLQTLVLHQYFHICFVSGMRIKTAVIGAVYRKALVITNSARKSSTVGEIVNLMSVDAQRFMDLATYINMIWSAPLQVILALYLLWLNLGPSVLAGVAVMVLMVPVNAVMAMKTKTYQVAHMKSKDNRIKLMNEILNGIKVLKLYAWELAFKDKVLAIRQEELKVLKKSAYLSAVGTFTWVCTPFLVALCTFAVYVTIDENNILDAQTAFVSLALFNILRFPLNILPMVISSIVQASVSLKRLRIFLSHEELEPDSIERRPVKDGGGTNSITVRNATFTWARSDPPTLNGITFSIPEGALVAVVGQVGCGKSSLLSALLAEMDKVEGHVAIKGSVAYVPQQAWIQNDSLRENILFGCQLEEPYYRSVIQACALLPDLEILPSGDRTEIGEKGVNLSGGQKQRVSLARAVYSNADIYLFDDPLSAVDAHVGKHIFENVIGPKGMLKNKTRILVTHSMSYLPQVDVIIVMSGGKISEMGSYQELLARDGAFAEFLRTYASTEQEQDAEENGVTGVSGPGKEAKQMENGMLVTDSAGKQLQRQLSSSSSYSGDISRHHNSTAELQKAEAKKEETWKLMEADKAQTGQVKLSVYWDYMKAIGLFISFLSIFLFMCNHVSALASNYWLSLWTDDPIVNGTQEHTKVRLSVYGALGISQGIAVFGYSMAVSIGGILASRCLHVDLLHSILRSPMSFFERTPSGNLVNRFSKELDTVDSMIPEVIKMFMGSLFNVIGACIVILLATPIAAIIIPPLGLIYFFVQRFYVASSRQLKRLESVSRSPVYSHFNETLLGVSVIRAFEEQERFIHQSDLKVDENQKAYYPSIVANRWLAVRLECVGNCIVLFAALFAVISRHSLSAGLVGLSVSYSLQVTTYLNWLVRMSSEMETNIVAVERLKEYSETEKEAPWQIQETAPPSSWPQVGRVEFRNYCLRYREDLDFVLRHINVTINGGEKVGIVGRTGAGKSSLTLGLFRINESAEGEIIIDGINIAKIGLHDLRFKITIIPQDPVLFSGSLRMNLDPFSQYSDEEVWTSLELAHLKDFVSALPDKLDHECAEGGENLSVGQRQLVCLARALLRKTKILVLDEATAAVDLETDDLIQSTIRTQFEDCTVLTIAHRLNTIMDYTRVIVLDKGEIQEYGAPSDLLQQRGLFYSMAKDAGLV

## C=C[C@H]1C[N@@]2CC[C@H]1C[C@@H]2[C@@H](O)c1ccnc2ccc(OC)cc12 [quinidine]
[1]
  effect on ciprofloxacin transport in MDCKI cells (in words): no significant effects

## CN(CC(=O)O)C(=O)CN [glycosarcosine] (H-Gly-[Sar]-OH)
[1]
  effect on ciprofloxacin transport in MDCKI cells (in words): no significant effects; also recorded: no effect

## OC[C@@H](O)[C@@H](O)[C@H](O)[C@H](O)CO [mannitol]
[2]
  Papp at 1 h: ~0.5 ×10⁻⁶ cm/s
[3]
  Papp at 1 h: ~1.3 ×10⁻⁶ cm/s
[4]
  Papp at 1 h: ~3.5 ×10⁻⁶ cm/s
[5]
  Papp at 1 h: ~1.2 ×10⁻⁶ cm/s
[6]
  Papp at 1 h: ~0.5 ×10⁻⁶ cm/s

## COc1cc(Cc2cnc(N)nc2N)cc(OC)c1OC [trimethoprim]
[7]
  P-gp substrate status from transport studies: substrate of P-gp
[8]
  difference in transport between MDCKII and MDCKII-MDR1 cells: no difference

## O=C(O)c1cn(C2CC2)c2cc(N3CCNCC3)c(F)cc2c1=O [ciprofloxacin]
[9]
  eliminated via intestinal secretion: at least 10%

## CCCN(CCC)S(=O)(=O)c1ccc(C(=O)O)cc1 [probenecid]
[10]
  effect on ciprofloxacin renal secretion: competitively inhibit
[11]
  interaction with OAT3: inhibitor of OAT3

## CC[C@]1(O)C[C@@H]2CN(CCc3c([nH]c4ccccc34)[C@@](C(=O)OC)(c3cc4c(cc3OC)N(C)[C@H]3[C@@](O)(C(=O)OC)[C@H](OC(C)=O)[C@]5(CC)C=CCN6CC[C@]43[C@@H]65)C2)C1 [vinblastine]
[12]
  P-gp substrate status from transport studies: substrate of P-gp
[13]
  difference in transport between LLC-PK1 and L-MDR1 cells: no difference
[13]; listed as Vinblastine
  difference in transport between LLC-PK1 and L-MDR1 cells: did not show differences
[1]
  effect on ciprofloxacin transport in MDCKI cells (in words): no significant effects

## COc1cc2c(cc1OC)CN(CCc1ccc(NC(=O)c3cccc4c(=O)c5cccc(OC)c5[nH]c34)cc1)CC2 [GG918]
[1]
  effect on ciprofloxacin transport in MDCKI cells (in words): no significant effects
